Reference: PMC8436246 (ACS Medicinal Chemistry Letters, 2021)

How the values were obtained:
[1] = test system: EMT6 tumor-implanted BALB/c mice; assay: pharmacokinetic-pharmacodynamic experiments in EMT6 tumor-bearing BALB/c mice; type: in vivo
[2] = mouse pharmacokinetic study, oral bioavailability; type: in vivo, C57BL/6 mice
[3] = in vitro stability in mouse hepatocytes; type: in vitro ADME

O=C(O)[C@H]1NCC[C@H]1CCCB(O)O [Compound 4a]
serum and tumor arginine levels ([1]; 30, 100, 300 mpk BID p.o., 1 h after fourth dose, vs saline control): substantially elevated | pharmacodynamic effects on serum and tumor arginine levels with or without codosing of mDX400 ([1]; p.o. 250 mpk BID, 14 day, ± mDX400 i.p. 5 mpk Q5D): comparable pharmacodynamic effects | tolerability / body weight ([1]; p.o. 250 mpk BID, alone and with mDX400 (i.p. 5 mpk Q5D), 14 day repeated dosing): well tolerated

C[C@H](N)C(=O)N[C@H]1CN[C@H](C(=O)O)[C@@H]1CCCB(O)O [Compound 23]
combined exposures of 18 and 23 (% F) ([2]; 23 dosed orally, 10 mpk, mouse): 27 % F | clearance ([2]; mouse pharmacokinetic experiments): rapid clearance

CC(C)[C@H](N)C(=O)N[C@H]1CN[C@H](C(=O)O)[C@@H]1CCCB(O)O [Compound 24a]
metabolic stability [3]: good metabolic stability was not achieved
